Target: CREBBP (Homo sapiens (Human), UniProt Q92793)
Test: In vitro enzyme inhibition assay - CREBBP inhibition (AlphaScreen, biotinylated H4-tetraacetyl peptide)
Assay type: binding
Conditions: Table 28; AlphaScreen, H4-tetraacetyl peptide
Summary of the method: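 Displacement of 20 nM biotinylated tetraacetyl-H4 peptide from 50 nM E. coli-expressed His-CREBBP, measured by AlphaScreen after bead equilibration for 2 h.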

CREBBP, sequence (Q92793 1081-1197): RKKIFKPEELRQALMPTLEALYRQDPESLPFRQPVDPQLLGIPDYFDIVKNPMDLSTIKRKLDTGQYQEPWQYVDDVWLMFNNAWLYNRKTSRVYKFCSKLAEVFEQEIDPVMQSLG

Structure (SMILES) | IC50 [nM]
Cn1cc(-c2cc(NS(=O)(=O)CCC(F)(F)F)nc(Oc3c(F)cccc3Cl)n2)ccc1=O [Example 231, 3,3,3-Trifluoro-propane-1-sulfonic acid [2-(2-chloro-6-fluoro-phenoxy)-6-(1-methyl-6-oxo-1,6-dihydro-pyridin-3-yl)-pyrimidin-4-yl]-amide] | < 500
CCS(=O)(=O)Nc1cc(-c2cc(C)c(=O)n(C)c2)nc(-c2ccccc2C)n1 [Example 192, Ethanesulfonic acid [6-(1,5-dimethyl-6-oxo-1,6-dihydro-pyridin-3-yl)-2-o-tolyl-pyrimidin-4-yl]-amide] | < 500
Cc1cccc(F)c1Oc1nc(NS(=O)(=O)CC(C)C)nc(-c2cc(C)c(=O)n(C)c2)n1 [Example 183, 2-Methyl-propane-1-sulfonic acid [4-(1,5-dimethyl-6-oxo-1,6-dihydro-pyridin-3-yl)-6-(2-fluoro-6-methyl-phenoxy)-[1,3,5]triazin-2-yl]-amide] | < 500
CCCS(=O)(=O)Nc1cc(Oc2c(C)cc(Cl)cc2Cl)nc(-c2cc(C)c(=O)n(C)c2)n1 [Example 60, Propane-1-sulfonic acid [6-(2,4-dichloro-6-methyl-phenoxy)-2-(1,5-dimethyl-6-oxo-1,6-dihydro-pyridin-3-yl)-pyrimidin-4-yl]-amide] | < 500
Cc1cc(-c2cc(N(C)S(=O)(=O)C(C)C)nc(Oc3ccc(F)cc3F)n2)cn(C)c1=O [Example 73, N-(2-(2,4-difluorophenoxy)-6-(1,5-dimethyl-6-oxo-1,6-dihydropyridin-3-yl)pyrimidin-4-yl)-N-methylpropane-2-sulfonamide] | < 500
Cc1cc(-c2cc(NS(=O)(=O)C(C)C)nc(Oc3ccc(F)cc3)n2)cn(C)c1=O [Example 70, N-(6-(1,5-dimethyl-6-oxo-1,6-dihydropyridin-3-yl)-2-(4-fluorophenoxy)pyrimidin-4-yl)propane-2-sulfonamide] | < 500
CC[C@@H](C)S(=O)(=O)Nc1cc(-c2ccc(=O)n(C)c2)nc(Oc2c(F)cccc2F)n1 [Example 230, (R)-N-(2-(2,6-difluorophenoxy)-6-(1-methyl-6-oxo-1,6-dihydropyridin-3-yl)pyrimidin-4-yl)butane-2-sulfonamide] | < 500
CCC(CC)S(=O)(=O)Nc1cc(-c2ccc(=O)n(C)c2)nc(Oc2c(C)cccc2F)n1 [Example 253, Pentane-3-sulfonic acid [2-(2-fluoro-6-methyl-pphenoxy)-6-(1-methyl-6-oxo-1,6-dihydro-pyridin-3-yl)-pyrimidin-4-yl]-amide] | < 500
Cc1cccc(C#N)c1Oc1nc(NS(=O)(=O)CCCC(F)(F)F)cc(-c2ccc(=O)n(C)c2)n1 [Example 150, N-(2-(2-cyano-6-methylphenoxy)-6-(1-methyl-6-oxo-1,6-dihdyropyridin-3-yl)pyrimidin-4-yl)-4,4,4-trifluorobutane-1-sulfonamide] | < 500
COc1nc(NCc2ccccn2)cc(-c2ccc(=O)n(C)c2)n1 [Example 328, 5-{2-Methoxy-6-[(pyridin-2-ylmethyl)-amino]-pyrimidin-4-yl}-1-methyl-1H-pyridin-2-one] | < 500
Cc1cc(-c2cc(S(=O)(=O)C(C)C)nc(Oc3ccc(F)cc3F)n2)cn(C)c1=O [Example 134, 5-[2-(2,4-Difluoro-phenoxy)-6-(propane-2-sulfonyl)-pyrimidin-4-yl]-1,3-dimethyl-1H-pyridin-2-one] | < 500
CCCS(=O)(=O)Nc1cc(-c2ccc(=O)n(C)c2)nc(Oc2c(C)cc(Cl)cc2Cl)n1 [Example 31, Propane-1-sulfonic acid [2-(2,4-dichloro-6-methyl-phenoxy)-6-(1-methyl-6-oxo-1,6-dihydro-pyridin-3-yl)-pyrimidin-4-yl]-amide] | < 500
CCS(=O)(=O)Nc1nc(Oc2c(C)cccc2C)nc(-c2cc(C)c(=O)n(C)c2)c1C [Example 160, Ethanesulfonic acid [6-(1,5-dimethyl-6-oxo-1,6-dihydro-pyridin-3-yl)-2-(2,6-dimethyl-phenoxy)-5-methyl-pyrimidin-4-yl]-amide] | < 500
CCS(=O)(=O)Nc1cc(-c2cc(C)c(=O)n(C)c2)nc(Oc2c(C)cc(Cl)cc2Cl)n1 [Example 26, Ethanesulfonic acid [2-(2,4-dichloro-6-methyl-phenoxy)-6-(1,5-dimethyl-6-oxo-1,6-dihydro-pyridin-3-yl)-pyrimidin-4-yl]-amide] | < 500
Cc1cccc(C#N)c1Oc1nc(N[C@@H](C)c2ccccc2)cc(-c2ccc(=O)n(C)c2)n1 [Example 322, (S)-3-Methyl-2-[4-(1-methyl-6-oxo-1,6-dihydro-pyridin-3-yl)-6-(1-phenyl-ethylamino)-pyrimidin-2-yloxy]-benzonitrile] | < 500
Cc1ccccc1C(C)Nc1cc(-c2ccc(=O)n(C)c2)nc(Oc2c(C)cccc2F)n1 (stereo not drawn) [Example 299, 5-[2-(2-Fluoro-6-methyl-phenoxy)-6-(1-o-tolyl-ethylamino)-pyrimidin-4-yl]-1-methyl-1H-pyridin-2-one] | < 500
Cc1cccc(F)c1Oc1nc(NC(C)C)cc(-c2ccc(=O)n(C)c2)n1 [Example 281, 5-(2-(2-fluoro-6-methylphenoxy)-6-(isopropylamino)pyrimidin-4-yl)-1-methylpyridin-2(1H)-one] | < 500
Cn1cc(-c2cc3nc(n2)Oc2cccc(c2)OCC=CCCS(=O)(=O)N3)ccc1=O [Example 356, 5-(10,10-dioxido-2,4-dioxa-10-thia-11-aza-1(2,4)-pyrimidina-3(1,3)-benzenacycloundecaphan-6-en-16-yl)-1-methylpyridin-2(1H)-one] | < 500
Cc1cccc(F)c1Oc1nc(NCc2ccccc2)cc(-c2ccc(=O)n(C)c2)n1 [Example 292, 5-[6-Benzylamino-2-(2-fluoro-6-methyl-phenoxy)-pyrimidin-4-yl]-1-methyl-1H-pyridin-2-one] | < 500
CCCS(=O)(=O)Nc1cc(Oc2c(C#N)cccc2OC)nc(-c2cc(C)c(=O)n(C)c2)n1 [Example 130, Propane-1-sulfonic acid [6-(2-cyano-6-methoxy-phenoxy)-2-(1,5-dimethyl-6-oxo-1,6-dihydro-pyridin-3-yl)-pyrimidin-4-yl]-amide] | < 500
Cc1cc(-c2cc(NS(C)(=O)=O)nc(Oc3ccc(F)cc3F)n2)cn(C)c1=O [Example 61, N-(2-(2,4-difluorophenoxy)-6-(1,5-dimethyl-6-oxo-1,6-dihydropyridin-3-yl)pyrimidin-4-yl)methanesulfonamide] | < 500
CCS(=O)(=O)Nc1cc(-c2ccc(=O)n(C)c2)nc(-c2cc(C)ccc2OC)n1 [Example 195, Ethanesulfonic acid [2-(2-methoxy-5-methyl-phenyl)-6-(1-methyl-6-oxo-1,6-dihydro-pyridin-3-yl)-pyrimidin-4-yl]-amide] | 500 to 5000
CCC[C@@H](C)Nc1cc(-c2ccc(=O)n(C)c2)nc(Oc2c(C)cccc2Cl)n1 [Example 313, (R)-5-[2-(2-Chloro-6-methyl-phenoxy)-6-(1-methyl-butylamino)-pyrimidin-4-yl]-1-methyl-1H-pyridin-2-one] | < 500
CCCCS(=O)(=O)Nc1cc(-c2ccc(=O)n(C)c2)nc(Oc2c(C)nn(C)c2C)n1 [Example 124, Butane-1-sulfonic acid [6-(1-methyl-6-oxo-1,6-dihydro-pyridin-3-yl)-2-(1,3,5-trimethyl-1H-pyrazol-4-yloxy)-pyrimidin-4-yl]-amide] | < 500
